Measurements: patent publication US20180185347A1, “TETRAHYDROCYCLOPENTA[B]INDOLE COMPOUNDS AND PHOSPHODIESTERASE INHIBITORS FOR THE TREATMENT OF THE SIGNS AND SYMPTOMS OF BHP” (Transition Therapeutics (Ireland 2) Limited, priority 2016, published 2018)

Tests used:
[1] = Study GPBA single oral dose pharmacokinetics; conditions: human, in vivo, healthy subjects; for Cmax: geometric mean; for Tmax: median
dogs = test: Dog toxicology program: prostate weight and atrophy; type: in vivo; parameters: key to Prostate weight (mean % decrease): “”: no effect observed; conditions: for Prostate weight (mean % decrease): dog
LnCAP cells = test: LnCAP gene expression; type: cell-based; conditions: Homo sapiens, read-out: LnCAP Gene Expression EC50 (nM) AR
[2] = molecular target: T1, 17-beta-Hydroxysteroid Dehydrogenase Type 2 (Homo sapiens, UniProt P37059); test: Metabolism by 17-beta-HSD type 2; type: in vitro ADME
T1 sequence (P37059 1-387): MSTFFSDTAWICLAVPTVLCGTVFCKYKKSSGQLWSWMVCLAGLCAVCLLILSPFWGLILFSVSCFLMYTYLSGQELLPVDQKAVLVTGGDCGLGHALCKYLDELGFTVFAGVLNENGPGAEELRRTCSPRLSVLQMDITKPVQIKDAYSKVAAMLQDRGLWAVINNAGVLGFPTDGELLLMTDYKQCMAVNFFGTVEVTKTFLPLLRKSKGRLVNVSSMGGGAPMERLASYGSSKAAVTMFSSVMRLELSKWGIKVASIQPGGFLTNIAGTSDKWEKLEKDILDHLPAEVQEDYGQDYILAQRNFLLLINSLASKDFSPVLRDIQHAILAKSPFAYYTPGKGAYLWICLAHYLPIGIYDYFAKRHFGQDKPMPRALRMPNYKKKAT

PSA levels = conditions: healthy volunteers, any time point or dose, data of WO 2016040234; cited from earlier work

In the case of CC(C)OC(=O)N[C@H]1Cc2c(n(Cc3ccccn3)c3ccc(C#N)cc23)C1 [compound of Formula II, (S)-(7-cyano-4-pyridin-2-ylmethyl-1,2,3,4-tetrahydro-cyclopenta[b]indol-2-yl)-carbamic acid isopropyl ester], the Cmax ([1]; single oral dose 5 mg) is reported as 25.9 ng/mL, the Tmax ([1]; single oral dose 5 mg) is reported as 5 h and the Cmax ([1]; single oral dose 25 mg) is reported as 123 ng/mL. For the same compound, the Tmax ([1]; single oral dose 25 mg) was 4 h, the Cmax ([1]; single oral dose 250 mg) was 589 ng/mL and the Tmax ([1]; single oral dose 250 mg) was 5 h. The Cmax ([1]; single oral dose 500 mg) was 817 ng/mL, the Tmax ([1]; single oral dose 500 mg) was 4 h and the Cmax ([1]; single oral dose 1000 mg) was 910 ng/mL. For the same compound, the Tmax ([1]; single oral dose 1000 mg) was 4.5 h, the “Prostate weight (mean % decrease)” value (dogs; 1+ months, 3 mg/kg/day) was ““”” and the “Prostate weight (mean % decrease)” value (dogs; 1+ months, 30 mg/kg/day) was ““””. For the same compound, the “Prostate weight (mean % decrease)” value (dogs; 1+ months, 150 mg/kg/day) was ““””, the “Prostate weight (mean % decrease)” value (dogs; 6+ months, 3 mg/kg/day) was “^↓63%” and the “Prostate weight (mean % decrease)” value (dogs; 6+ months, 30 mg/kg/day) was “^↓66%”. The “Prostate weight (mean % decrease)” value (dogs; 6+ months, 150 mg/kg/day) was “^↓75%”, the “Prostate weight (mean % decrease)” value (dogs; 12 months, 3 mg/kg/day) was “^↓60%” and the “Prostate weight (mean % decrease)” value (dogs; 12 months, 10 mg/kg/day) was “^↓62%”. The “Prostate weight (mean % decrease)” value (dogs; 12 months, 100 mg/kg/day) was “^↓80%”, the “decreases in prostate weight” value (dogs; dogs, by 3 months (so in the source)) was 60-75% and the “decrease in prostate size” value (dogs; normal dogs, six-month treatment period) was 60%. The EC50 (LnCAP cells) was 1.64 nM, the “metabolism by 17-beta-Hydroxysteroid Dehydrogenase Type 2 class of enzymes” value [2] was “not metabolized” and the “PSA levels, change from baseline vs placebo” value (PSA levels) was “no significant changes from baseline”.
